Data taken from PubChem BioAssay AID248 (DTP/NCI, 2004).
Several values for one entry are separate records, joined by “and”; a condition that tells them apart may be missing. Identical values can stand only once. Toxic doses and inconclusive results are not listed. Rule as the data show it: active = T/C of 150% or more; inactive = T/C below 125%.

Test system: L1210 leukemia ip in BDF1 mice, survival T/C
Test: NCI In Vivo Anticancer Drug Screen. Data for tumor model L1210 Leukemia (intraperitoneal) in B6D2F1 (BDF1) mice
Conditions: endpoint: mean survival time, higher = longer survival
Summary of the method: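 Survival endpoint. Drug-treated group vs vehicle group, expressed as T divided by C. Tumor passaged by transplantation.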

[1] = dose: 100.0 mg/kg/injection, schedule: Q01DX001 (ip), vehicle: other
[2] = dose: 100.0 mg/kg/injection, schedule: Q01DX009 (ip), vehicle: Klucel (hydroxypropylcellulose) (HPC)
[3] = dose: 200.0 mg/kg/injection, schedule: Q01DX001 (ip), vehicle: other
[4] = dose: 200.0 mg/kg/injection, schedule: Q01DX009 (ip), vehicle: Klucel (hydroxypropylcellulose) (HPC)
[5] = dose: 100.0 mg/kg/injection, schedule: Q01DX009 (ip), vehicle: saline with Tween-80
[6] = dose: 100.0 mg/kg/injection, schedule: Q04DX002 (ip), vehicle: saline with Tween-80
[7] = dose: 100.0 mg/kg/injection, schedule: Q04DX003 (ip), vehicle: saline with Tween-80
[8] = dose: 200.0 mg/kg/injection, schedule: Q01DX009 (ip), vehicle: saline with Tween-80
[9] = dose: 200.0 mg/kg/injection, schedule: Q04DX002 (ip), vehicle: saline with Tween-80
[10] = dose: 200.0 mg/kg/injection, schedule: Q04DX003 (ip), vehicle: saline with Tween-80
[11] = dose: 400.0 mg/kg/injection, schedule: Q01DX009 (ip), vehicle: saline with Tween-80
[12] = dose: 400.0 mg/kg/injection, schedule: Q04DX002 (ip), vehicle: saline with Tween-80
[13] = dose: 400.0 mg/kg/injection, schedule: Q04DX003 (ip), vehicle: saline with Tween-80
[14] = dose: 100.0 mg/kg/injection, schedule: Q01DX001 (ip), vehicle: saline
[15] = dose: 200.0 mg/kg/injection, schedule: Q01DX001 (ip), vehicle: saline
[16] = dose: 400.0 mg/kg/injection, schedule: Q01DX001 (ip), vehicle: saline
[17] = dose: 50.0 mg/kg/injection, schedule: Q04DX002 (ip), vehicle: saline
[18] = dose: 200.0 mg/kg/injection, schedule: Q01DX001 (ip), vehicle: carboxymethylcellulose (CMC)
[19] = dose: 400.0 mg/kg/injection, schedule: Q01DX001 (ip), vehicle: carboxymethylcellulose (CMC)
[20] = dose: 50.0 mg/kg/injection, schedule: Q01DX001 (ip), vehicle: saline
[21] = dose: 100.0 mg/kg/injection, schedule: Q01DX001 (ip), vehicle: carboxymethylcellulose (CMC)

Measured: T/C

[O-][n+]1ccc2ccccc2c1
inactive: dose: 50.0 mg/kg/injection, schedule: Q01DX005 (ip), vehicle: Klucel (hydroxypropylcellulose) (HPC) 102 % of control | dose: 50.0 mg/kg/injection, schedule: Q01DX009 (ip), vehicle: Klucel (hydroxypropylcellulose) (HPC) 101 % of control | [1] 110 % of control | dose: 100.0 mg/kg/injection, schedule: Q01DX005 (ip), vehicle: Klucel (hydroxypropylcellulose) (HPC) 97 % of control | [2] 108 % of control | dose: 100.0 mg/kg/injection, schedule: Q04DX002 (ip), vehicle: Klucel (hydroxypropylcellulose) (HPC) 106 % of control | dose: 100.0 mg/kg/injection, schedule: Q04DX003 (ip), vehicle: saline 111 % of control | [3] 100 % of control | dose: 200.0 mg/kg/injection, schedule: Q01DX005 (ip), vehicle: Klucel (hydroxypropylcellulose) (HPC) 105 % of control | [4] 111 % of control | dose: 200.0 mg/kg/injection, schedule: Q04DX002 (ip), vehicle: Klucel (hydroxypropylcellulose) (HPC) 109 % of control | dose: 200.0 mg/kg/injection, schedule: Q04DX003 (ip), vehicle: saline 114 % of control | dose: 400.0 mg/kg/injection, schedule: Q01DX001 (ip), vehicle: other 103 % of control

COc1cc(CC2c3ccccc3CC[N+]2(C)C)c(Oc2cc(CC3c4ccccc4CC[N+]3(C)C)ccc2OC)cc1OC (configuration not stated)
inactive: dose: 0.78 mg/kg/injection, schedule: Q01DX009 (ip), vehicle: Klucel (hydroxypropylcellulose) (HPC) 103 % of control | dose: 1.56 mg/kg/injection, schedule: Q01DX009 (ip), vehicle: Klucel (hydroxypropylcellulose) (HPC) 97 % of control | dose: 3.13 mg/kg/injection, schedule: Q01DX009 (ip), vehicle: Klucel (hydroxypropylcellulose) (HPC) 100 % of control

O=C(O)c1cc(C(=O)Nc2cccc3ccccc23)c(C(=O)O)cc1C(=O)Nc1cccc2ccccc12
inactive: [5] 96 % of control and 87 % of control | [6] 104 % of control and 116 % of control | [7] 100 % of control | [8] 97 % of control and 91 % of control | [9] 94 % of control and 103 % of control | [10] 105 % of control | [11] 100 % of control and 92 % of control | [12] 93 % of control and 89 % of control | [13] 98 % of control

Cc1cccc(Cl)c1NC(=O)CC#N
inactive: [5] 97 % of control | [6] 97 % of control | [8] 95 % of control | [9] 97 % of control | [11] 100 % of control | [12] 97 % of control

NC(=O)N/N=C/c1[nH]c(=S)[nH]c(=O)c1Cc1ccc(Br)cc1
inactive: dose: 100.0 mg/kg/injection, schedule: Q01DX001 (ip), vehicle: saline with Tween-80 107 % of control | dose: 200.0 mg/kg/injection, schedule: Q01DX001 (ip), vehicle: saline with Tween-80 95 % of control | dose: 400.0 mg/kg/injection, schedule: Q01DX001 (ip), vehicle: saline with Tween-80 98 % of control

O=C(CC(O)(C(F)(F)F)C(F)(F)F)c1cccnc1
inactive: [2] 98 % of control | [7] 101 % of control | [4] 104 % of control | [10] 103 % of control | dose: 400.0 mg/kg/injection, schedule: Q01DX009 (ip), vehicle: Klucel (hydroxypropylcellulose) (HPC) 101 % of control | [13] 103 % of control

Cc1nc2c(O)cccc2cc1CO
inactive: [2] 95 % of control | [4] 93 % of control

OC(COc1cccc2ccccc12)CN1CCN(c2ccc(Cl)cc2)CC1 (configuration not stated)
inactive: [14] 98 % of control | [15] 101 % of control | [16] 97 % of control

CCCCSc1ccc2c(cc1=O)C(N)CCc1cc(OC)c(OC)c(OC)c1-2 (configuration not stated)
inactive: dose: 12.5 mg/kg/injection, schedule: Q04DX002 (ip), vehicle: saline 104 % of control | dose: 25.0 mg/kg/injection, schedule: Q04DX002 (ip), vehicle: saline 88 % of control | [17] 95 % of control

CC1(C(N)=O)CC2C=CC1C2 (configuration not stated)
inactive: [18] 98 % of control | [19] 95 % of control

COc1ccc(C2ON2C2CCCCC2)cc1OC (configuration not stated)
inactive: [15] 106 % of control | [16] 100 % of control

COC12OCC(O)C1OC(=O)C2O (configuration not stated)
inactive: [17] 91 % of control | dose: 100.0 mg/kg/injection, schedule: Q04DX002 (ip), vehicle: saline 91 % of control | dose: 200.0 mg/kg/injection, schedule: Q04DX002 (ip), vehicle: saline 95 % of control

C=C(C/C(=C/S(C)=O)c1ccccc1)c1ccccc1 (configuration not stated)
inactive: dose: 75.0 mg/kg/injection, schedule: Q01DX001 (ip), vehicle: saline 97 % of control | dose: 150.0 mg/kg/injection, schedule: Q01DX001 (ip), vehicle: saline 96 % of control | dose: 300.0 mg/kg/injection, schedule: Q01DX001 (ip), vehicle: saline 91 % of control

CC1CCC(N=S=O)CC1 (configuration not stated) (tested in a mixture with another compound)
inactive: dose: 18.75 mg/kg/injection, schedule: Q01DX009 (ip), vehicle: saline with Tween-80 102 % of control | dose: 25.6 mg/kg/injection, schedule: Q04DX002 (ip), vehicle: saline with Tween-80 102 % of control | dose: 37.5 mg/kg/injection, schedule: Q01DX009 (ip), vehicle: saline with Tween-80 102 % of control | dose: 64.0 mg/kg/injection, schedule: Q04DX002 (ip), vehicle: saline with Tween-80 109 % of control | dose: 75.0 mg/kg/injection, schedule: Q01DX009 (ip), vehicle: saline with Tween-80 111 % of control | [7] 101 % of control | dose: 160.0 mg/kg/injection, schedule: Q04DX002 (ip), vehicle: saline with Tween-80 95 % of control

CCC(C)c1nc2c([nH]1)c(=O)n(C)c(=O)n2C (configuration not stated)
inactive: [20] 110 % of control | [14] 101 % of control | [15] 101 % of control | [16] 104 % of control

C(=N\Nc1nn[nH]n1)/c1ccncc1
inactive: [5] 98 % of control | [7] 95 % of control | dose: 132.0 mg/kg/injection, schedule: Q01DX009 (ip), vehicle: saline with Tween-80 102 % of control | [10] 96 % of control | dose: 300.0 mg/kg/injection, schedule: Q01DX009 (ip), vehicle: saline with Tween-80 97 % of control | [11] 100 % of control | [13] 90 % of control

CN(C)c1ccc(S(=O)(=O)c2ccc(N(C)C)c([N+](=O)[O-])c2)cc1[N+](=O)[O-]
inactive: dose: 100.0 mg/kg/injection, schedule: Q04DX002 (ip), vehicle: DMSO 107 % of control | dose: 200.0 mg/kg/injection, schedule: Q04DX002 (ip), vehicle: DMSO 103 % of control | dose: 400.0 mg/kg/injection, schedule: Q04DX002 (ip), vehicle: DMSO 103 % of control

CCCCCC(=O)C(CCCC)C(=O)Nc1ccccc1 (configuration not stated)
inactive: [21] 96 % of control | [18] 91 % of control | [19] 91 % of control

CCOC(=O)CNC1=NCCO1
inactive: [5] 91 % of control | [8] 96 % of control | [11] 93 % of control

O=[N+]([O-])C1CCC(C2=CSC3CCCCC3N2)CC1 (configuration not stated)
inactive: [6] 90 % of control | [9] 101 % of control | [12] 116 % of control

COc1cc(CC(=O)C2CN(C(=O)Cc3cc(Cl)c(OC)c(OC)c3)c3ccc(Br)cc32)cc(Cl)c1OC (configuration not stated)
inactive: [20] 96 % of control | [14] 96 % of control | [15] 90 % of control | [16] 93 % of control

CN(C)c1ccc(N=Nc2cc(Cl)cc(Cl)c2)cc1
inactive: [21] 89 % of control | [18] 91 % of control

Cc1ccc2c(c1)c(C)cc(=O)n2C
inactive: [1] 96 % of control | [3] 117 % of control

O=C(O)C1CSC(c2ccccc2)N1 (configuration not stated)
inactive: [1] 105 % of control | dose: 176.0 mg/kg/injection, schedule: Q01DX001 (ip), vehicle: other 109 % of control and 91 % of control | [3] 102 % of control | dose: 267.0 mg/kg/injection, schedule: Q01DX001 (ip), vehicle: other 96 % of control and 90 % of control | dose: 600.0 mg/kg/injection, schedule: Q01DX001 (ip), vehicle: other 101 % of control and 90 % of control

CCCCCCCCC(=O)[O][Hg][c]1ccccc1
inactive: dose: 75.0 mg/kg/injection, schedule: Q01DX001 (ip), vehicle: other 106 % of control
